Assay results published in PubChem BioAssay (NCI).
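Each compound was tested at five concentrations against cells in 96-well plates for 48 hours. Definition used: TGI = concentration required for complete inhibition of growth.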

Tests used:
Test in all cases: NCI anticancer screen, dose series, 48 h
HCT-15 colon = tested on: HCT-15 colon
SNB-19 CNS = tested on: SNB-19 CNS
RXF 393 renal = tested on: RXF 393 renal
NCI-H460 lung = tested on: NCI-H460 lung
KM12 colon = tested on: KM12 colon
UACC-62 melanoma = tested on: UACC-62 melanoma
SK-MEL-28 melanoma = tested on: SK-MEL-28 melanoma
MALME-3M melanoma = tested on: MALME-3M melanoma
SNB-75 CNS = tested on: SNB-75 CNS
DLD-1 colon = tested on: DLD-1 colon
SF-295 CNS = tested on: SF-295 CNS
OVCAR-5 ovarian = tested on: OVCAR-5 ovarian
SN12C renal = tested on: SN12C renal
EKVX NSCLC = tested on: EKVX NSCLC
RXF-631 renal = tested on: RXF-631 renal
LXFL 529 NSCLC = tested on: LXFL 529 NSCLC
NCI-H226 lung = tested on: NCI-H226 lung
SR leukemia = tested on: SR leukemia
MOLT-4 leukemia = tested on: MOLT-4 leukemia
M19-MEL melanoma = tested on: M19-MEL melanoma
M14 melanoma = tested on: M14 melanoma
TK-10 renal = tested on: TK-10 renal
XF 498 CNS = tested on: XF 498 CNS
LOX IMVI melanoma = tested on: LOX IMVI melanoma
OVCAR-4 ovarian = tested on: OVCAR-4 ovarian
DMS 273 small cell lung = tested on: DMS 273 small cell lung
HCT-116 colon = tested on: HCT-116 colon
U251 CNS = tested on: U251 CNS
SF-268 CNS = tested on: SF-268 CNS
SW-620 colon = tested on: SW-620 colon
ACHN renal = tested on: ACHN renal
UO-31 renal = tested on: UO-31 renal
SK-OV-3 ovarian = tested on: SK-OV-3 ovarian
HCC-2998 colon = tested on: HCC-2998 colon
HT29 colon = tested on: HT29 colon
IGROV1 ovarian = tested on: IGROV1 ovarian
A549 NSCLC = tested on: A549 NSCLC
SNB-78 CNS = tested on: SNB-78 CNS
786-0 renal = tested on: 786-0 renal
CAKI-1 renal = tested on: CAKI-1 renal
SF-539 CNS = tested on: SF-539 CNS
RPMI-8226 leukemia = tested on: RPMI-8226 leukemia
KM20L2 colon = tested on: KM20L2 colon
NCI-H522 lung = tested on: NCI-H522 lung
HOP-92 NSCLC = tested on: HOP-92 NSCLC
K-562 leukemia = tested on: K-562 leukemia
OVCAR-8 ovarian = tested on: OVCAR-8 ovarian
A498 renal = tested on: A498 renal
UACC-257 melanoma = tested on: UACC-257 melanoma
SK-MEL-5 melanoma = tested on: SK-MEL-5 melanoma
HL-60(TB) leukemia = tested on: HL-60(TB) leukemia
HOP-18 NSCLC = tested on: HOP-18 NSCLC
NCI-H23 lung = tested on: NCI-H23 lung
COLO 205 colon = tested on: COLO 205 colon
OVCAR-3 ovarian = tested on: OVCAR-3 ovarian

## O=S1Cc2ccccc2CS1 (stereo not given)
HCT-15 colon
  TGI: > 100 µM
SNB-19 CNS
  TGI: > 100 µM
RXF 393 renal
  TGI: 29.5 µM
NCI-H460 lung
  TGI: 64.6 µM
KM12 colon
  TGI: > 100 µM
UACC-62 melanoma
  TGI: 28.9 µM
SK-MEL-28 melanoma
  TGI: 28.3 µM
MALME-3M melanoma
  TGI: 26.4 µM
SNB-75 CNS
  TGI: 61.5 µM
DLD-1 colon
  TGI: 33.5 µM
SF-295 CNS
  TGI: > 100 µM
OVCAR-5 ovarian
  TGI: 56.9 µM
SN12C renal
  TGI: 28.3 µM
EKVX NSCLC
  TGI: 44.9 µM
RXF-631 renal
  TGI: > 100 µM
LXFL 529 NSCLC
  TGI: 28.7 µM
NCI-H226 lung
  TGI: > 100 µM
SR leukemia
  TGI: 64.4 µM
MOLT-4 leukemia
  TGI: 56 µM
M19-MEL melanoma
  TGI: 33.7 µM
M14 melanoma
  TGI: 28.3 µM
TK-10 renal
  TGI: 55.6 µM
XF 498 CNS
  TGI: 32.6 µM
LOX IMVI melanoma
  TGI: 21.3 µM
OVCAR-4 ovarian
  TGI: 30.6 µM
DMS 273 small cell lung
  TGI: 29.8 µM
HCT-116 colon
  TGI: 57.2 µM
U251 CNS
  TGI: 24.5 µM
SF-268 CNS
  TGI: > 100 µM
SW-620 colon
  TGI: 27.1 µM
ACHN renal
  TGI: > 100 µM
UO-31 renal
  TGI: 56.4 µM
SK-OV-3 ovarian
  TGI: > 100 µM
HCC-2998 colon
  TGI: 93.2 µM
HT29 colon
  TGI: 30.1 µM
IGROV1 ovarian
  TGI: > 100 µM
A549 NSCLC
  TGI: > 100 µM
SNB-78 CNS
  TGI: 36.7 µM
786-0 renal
  TGI: 29.2 µM
CAKI-1 renal
  TGI: 31.1 µM
SF-539 CNS
  TGI: 24.5 µM
RPMI-8226 leukemia
  TGI: 38.2 µM
KM20L2 colon
  TGI: > 100 µM
NCI-H522 lung
  TGI: 19.7 µM
HOP-92 NSCLC
  TGI: 34.1 µM
K-562 leukemia
  TGI: 49.9 µM
OVCAR-8 ovarian
  TGI: 28.7 µM
A498 renal
  TGI: > 100 µM
UACC-257 melanoma
  TGI: 32 µM
SK-MEL-5 melanoma
  TGI: > 100 µM
HL-60(TB) leukemia
  TGI: 40.9 µM
HOP-18 NSCLC
  TGI: > 100 µM
NCI-H23 lung
  TGI: 28.3 µM
COLO 205 colon
  TGI: 28.8 µM
OVCAR-3 ovarian
  TGI: 29 µM
